Measured values from ChEMBL document CHEMBL5724696, “Autophagy assay results for EUbOPEN Chemogenomics Library” (2024).

Key:
U2OS [1] = assay: (§1) Here: values are normalized to the negative (DMSO; defined as 0% autophagy induction) and positive (250nM Torin1; mTOR inhibitor; defined as maximal inducer of autophagy = 100%) control compounds and represented as % of autophagy induction. […] The impact of autophagy induction on cells is complex and depends on the affected target. As such, the magnitude of a phenotype may not be equally mirrored in the %-value of autophagy induction and vice versa. The dynamics of the induction may indicate the mode of activation: e.g. activation via phosphorylation or a signaling cascade may occur fast, while activation via transcription factors may take considerably longer. […] Of note, treatment concentrations may be sub-optimal for specific compounds, leading to false negative annotations.; assay type: functional, Homo sapiens; details: Culturing Media DMEM, 1 % Penicillin/Streptomycin, 10% Fetal bovin serum Add-On: No, Screening Media Control DMEM, Screening Media Samples DMEM
U2OS [2] = assay: as §1; assay type: functional, Homo sapiens; details: Culturing Media DMEM, 1 % Penicillin/Streptomycin, 10% Fetal bovin serum Add-On: No, Screening Media Control DMEM, Screening Media Samples DMEM; remark: listed apart in the source
[3] = Compound Concentration 0.5 uM, Timepoint 12 hours
[4] = Compound Concentration 0.5 uM, Timepoint 24 hours
[5] = Compound Concentration 0.5 uM, Timepoint 36 hours
[6] = Compound Concentration 0.5 uM, Timepoint 60 hours
[7] = Compound Concentration 2 uM, Timepoint 12 hours
[8] = Compound Concentration 2 uM, Timepoint 24 hours
[9] = Compound Concentration 2 uM, Timepoint 36 hours
[10] = Compound Concentration 2 uM, Timepoint 60 hours
[11] = Compound Concentration 10 uM, Timepoint 12 hours
[12] = Compound Concentration 10 uM, Timepoint 24 hours
[13] = Compound Concentration 10 uM, Timepoint 36 hours
[14] = Compound Concentration 10 uM, Timepoint 60 hours

SMILES	autophagy induction (U2OS [1]; [3])	autophagy induction (U2OS [1]; [4])	autophagy induction (U2OS [1]; [5])	autophagy induction (U2OS [1]; [6])	autophagy induction (U2OS [1]; [7])	autophagy induction (U2OS [1]; [8])	autophagy induction (U2OS [1]; [9])	autophagy induction (U2OS [1]; [10])	autophagy induction (U2OS [1]; [11])	autophagy induction (U2OS [1]; [12])	autophagy induction (U2OS [1]; [13])	autophagy induction (U2OS [1]; [14])	autophagy induction (U2OS [2]; [3])	autophagy induction (U2OS [2]; [4])	autophagy induction (U2OS [2]; [5])	autophagy induction (U2OS [2]; [6])	autophagy induction (U2OS [2]; [7])	autophagy induction (U2OS [2]; [8])	autophagy induction (U2OS [2]; [9])	autophagy induction (U2OS [2]; [10])	also measured
Cc1cc(NC(=O)Nc2ccc(N(C)C)cc2)c2cc(F)cc(F)c2n1	-2.687%	-3.664%	-3.669%	114.219%	-0.9187%	-2.555%	-1.904%	114.2%	1.036%	-2.2709%	0.4658%	113.441%	-3.035%	-2.6114%	-4.581%	-2.138%	-10.8002%	-10.6502%	-6.099%	-2.686%	autophagy induction (U2OS [2]; [11]): 2.643%; autophagy induction (U2OS [2]; [12]): 9.654%; autophagy induction (U2OS [2]; [13]): 13.8869%; autophagy induction (U2OS [2]; [14]): 31.5866%
COc1cccc(-c2c(C)n(Cc3c(F)cccc3C(F)(F)F)c(=O)n(C[C@H](NCCCC(=O)[O-])c3ccccc3)c2=O)c1F.[Na+] [ELAGOLIX SODIUM]	-3.352%	-3.1643%	-0.7483%	-1111.24%	-6.63%	-5.163%	-4.643%	114.391%	-2.89%	-3.023%	-0.9947%	114.218%	4.133%	4.438%	6.469%	-7.02%	12.3647%	8.125%	1.282%	-8.542%	autophagy induction (U2OS [2]; [11]): -6.525%; autophagy induction (U2OS [2]; [12]): -4.485%; autophagy induction (U2OS [2]; [13]): -1.897%; autophagy induction (U2OS [2]; [14]): -2.895%
CC(C)(N)C(=O)N[C@H](COCc1ccccc1)C(=O)N1CCC2(CC1)CN(S(C)(=O)=O)c1ccccc12.CS(=O)(=O)O [IBUTAMOREN MESYLATE]	0.1513%	-2.852%	-1.869%	114.207%	2.232%	1.174%	-0.1276%	113.997%	21.0515%	11.8835%	9.457%	114.001%	-8.194%	-5.824%	-3.752%	0.1138%	-4.688%	-1.11%	1.85%	-0.8182%	autophagy induction (U2OS [2]; [11]): 7.887%; autophagy induction (U2OS [2]; [12]): 2.743%; autophagy induction (U2OS [2]; [13]): 7.197%; autophagy induction (U2OS [2]; [14]): 14.096%
O=C1O[C@]2(CC[C@H](C(=O)Nc3ccn(-c4ccccc4F)n3)CC2)c2cnccc21 [MK-0557]	3.984%	1.732%	0.4919%	114.165%	0.04111%	-0.7319%	-2.648%	114.407%	2.947%	-1.736%	-2.592%	114.447%	2.719%	-3.33%	-1.0176%	-10.434%	13.2836%	10.9196%	6.623%	2.549%	autophagy induction (U2OS [2]; [11]): 4.4586%; autophagy induction (U2OS [2]; [12]): 4.355%; autophagy induction (U2OS [2]; [13]): 0.9374%; autophagy induction (U2OS [2]; [14]): -12.6304%
